Reference: US20090275634A1 (priority 2006, published 2009)

How the values were obtained:
peritoneal macrophages [1] = assay type: cell-based, C57BL6 mice
peritoneal macrophages [2] = assay type: cell-based, C57BL6 mice; remark: listed apart in the source
[3] = system: peritoneal macrophages derived from MyD88 KO mice; assay type: cell-based, MyD88 KO mice (C57BL6 background)
[4] = system: peritoneal macrophages derived from MyD88 KO mice; assay type: cell-based, MyD88 KO mice (C57BL6 background); remark: listed apart in the source
[5] = system: peritoneal macrophages from TLR9 KO mice; assay type: cell-based

Substance: 5′-CTGCCACGTTCTCCTGCA*C*C*-3′ [nuclease resistant EN101]
- number of MAC-1 positive cells (peritoneal macrophages [1]): minor effect
- survival/proliferation of total and activated peritoneal macrophages (peritoneal macrophages [1]; 72 hr): inhibited
- MIP-2 secretion from PMs (peritoneal macrophages [2]): inhibited
- levels of MIP-2 in the supernatants of PM (peritoneal macrophages [2]): strongly elevated
- secretion of IL-6 from activated PMs (peritoneal macrophages [2]): did not induce secretion
- secretion of TNF-α from activated PMs (peritoneal macrophages [2]): did not induce secretion
- number of MAC-1 positive cells [3]: reduced significantly
- effect on MIP-2 levels in the supernatants of PMs [4]: almost totally inhibited
- number of total and MAC-1 positive cells [5]: reduced significantly
